Molecular target: T1, P2X2/3 (Homo sapiens, UniProt P56373+Q9UBL9)
T1 sequence (Q9UBL9 1-471): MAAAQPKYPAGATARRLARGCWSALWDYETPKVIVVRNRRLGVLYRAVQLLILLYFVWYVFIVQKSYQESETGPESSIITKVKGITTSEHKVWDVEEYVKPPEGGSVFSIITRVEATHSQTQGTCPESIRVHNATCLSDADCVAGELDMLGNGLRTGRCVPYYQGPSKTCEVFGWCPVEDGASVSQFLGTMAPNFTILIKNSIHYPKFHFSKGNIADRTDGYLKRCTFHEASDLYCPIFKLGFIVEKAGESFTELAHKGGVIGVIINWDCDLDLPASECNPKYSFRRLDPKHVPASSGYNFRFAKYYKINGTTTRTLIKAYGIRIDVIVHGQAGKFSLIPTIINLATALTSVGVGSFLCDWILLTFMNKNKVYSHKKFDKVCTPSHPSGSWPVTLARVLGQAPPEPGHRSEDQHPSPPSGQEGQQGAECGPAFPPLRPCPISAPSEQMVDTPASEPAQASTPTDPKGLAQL
T1 sequence (P56373 1-397): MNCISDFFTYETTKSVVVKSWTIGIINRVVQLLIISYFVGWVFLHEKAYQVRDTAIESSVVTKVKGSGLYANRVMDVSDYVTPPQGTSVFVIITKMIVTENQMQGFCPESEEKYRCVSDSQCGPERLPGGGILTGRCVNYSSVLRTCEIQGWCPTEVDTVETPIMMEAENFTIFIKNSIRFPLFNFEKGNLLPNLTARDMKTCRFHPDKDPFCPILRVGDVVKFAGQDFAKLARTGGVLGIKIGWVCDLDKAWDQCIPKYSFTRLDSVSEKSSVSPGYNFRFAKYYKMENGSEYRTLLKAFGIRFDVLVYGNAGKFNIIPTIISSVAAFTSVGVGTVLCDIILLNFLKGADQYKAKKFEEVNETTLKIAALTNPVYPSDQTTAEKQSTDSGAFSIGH
Test: P2X2/3 FLIPR intracellular calcium assay
Type: cell-based
Conditions: agonist at EC75, species (human or rat) not given
Procedure, shortened: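 Stable human P2X2/3 TRex293 cells (doxycycline-induced) loaded with Calcium 4 dye; compounds, 11-point half-log series from 2 mM top stock, preincubated 15 min at RT in HBSS/HEPES pH 7.4 with 1.8 mM CaCl2. Agonist added at EC75; fluorescence change versus no-compound wells gave IC50.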

IC50	Structure (SMILES)
1 to 100 nM	CC[C@H](NC(=O)c1cc(-n2nncc2C(F)F)c2ncc(-c3ccc(C)s3)n2c1)c1nnc[nH]1 [Example 52]
1 to 100 nM	CCc1cnnn1-c1cc(C(=O)NCc2ccc(C)nc2)cn2c(-c3ccc(C)s3)cnc12 [Example 22]
1 to 100 nM	C[C@H](NC(=O)c1cc(-n2nncc2C(F)F)c2ncc(-c3ccc(Cl)s3)n2c1)c1nnc[nH]1 [Example 38]
